# Measured values reported in PubChem BioAssay AID2060332 (Molecular Pharmacology Branch, DTP, NCI, 2025).
# “And” between values parts separate entries of the source, which are not always exact repeats. Equal entries are not always repeated.
# Test system: LG0567-F671-PDC multi-cell spheroid viability
# Test: Anticancer human tumor LG0567-F671-PDC patient-derived lung adenocarcinoma cell line growth inhibition [IpAb]
# Settings: for viability, T/C: stronger effect = lower value
# In short: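 Multi-cell spheroids of 60% tumour cells, 25% HUVEC and 15% MSC in ultra-low-attachment U-bottom wells, treated with agents combined with ipatasertib or abemaciclib. Half-log ranges top out near clinical Cmax, or 10 microM when Cmax is unknown.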
# [1] = curve of first compound, second compound 0.01 µM
# [2] = curve of first compound, second compound 0.0316 µM
# [3] = curve of first compound, second compound 0.1 µM
# [4] = curve of first compound, second compound 0.316 µM
# [5] = curve of first compound, second compound 1 µM
# [6] = second compound 0.1 µM, first compound 0.00949 µM
# [7] = second compound 0.1 µM, first compound 0.03 µM
# [8] = second compound 0.1 µM, first compound 0.0949 µM
# [9] = second compound 0.1 µM, first compound 0.3 µM
# [10] = second compound 0.1 µM, first compound 0.949 µM
# [11] = second compound 0.1 µM, first compound 3 µM
# [12] = second compound 0.316 µM, first compound 0.00949 µM
# [13] = second compound 0.316 µM, first compound 0.03 µM
# [14] = second compound 0.316 µM, first compound 0.0949 µM
# [15] = second compound 0.316 µM, first compound 0.3 µM
# [16] = second compound 0.316 µM, first compound 0.949 µM
# [17] = second compound 0.316 µM, first compound 3 µM
# [18] = second compound 1 µM, first compound 0.00949 µM
# [19] = second compound 1 µM, first compound 0.03 µM
# [20] = second compound 1 µM, first compound 0.0949 µM
# [21] = second compound 1 µM, first compound 0.3 µM
# [22] = second compound 1 µM, first compound 0.949 µM
# [23] = second compound 1 µM, first compound 3 µM
# 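Note: viability read after 7 days of drug exposure.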
# 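Throughout, for viability, T/C: 100% = DMSO vehicle control luminescence.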
structure (smiles),measurement,setting,value
CC(C)(C)c1cnc(CSc2cnc(NC(=O)C3CCNCC3)s2)o1 + CCN1CCN(Cc2ccc(Nc3ncc(F)c(-c4cc(F)c5nc(C)n(C(C)C)c5c4)n3)nc2)CC1,IC50,[1],152 nM
same,IC50,[2],129 nM
same,IC50,[3],106 nM
same,IC50,[4],74.2 nM
same,IC50,[5],52.5 nM
same,"viability, T/C","second compound 0.01 µM, first compound 0.00949 µM",108%
same,"viability, T/C","second compound 0.01 µM, first compound 0.03 µM",118%
same,"viability, T/C","second compound 0.01 µM, first compound 0.0949 µM",82.8%
same,"viability, T/C","second compound 0.01 µM, first compound 0.3 µM",3.32%
same,"viability, T/C","second compound 0.01 µM, first compound 0.949 µM",1.33%
same,"viability, T/C","second compound 0.01 µM, first compound 3 µM",0.84%
same,"viability, T/C","second compound 0.0316 µM, first compound 0.00949 µM",86.5%
same,"viability, T/C","second compound 0.0316 µM, first compound 0.03 µM",92.3%
same,"viability, T/C","second compound 0.0316 µM, first compound 0.0949 µM",66.8%
same,"viability, T/C","second compound 0.0316 µM, first compound 0.3 µM",4.66%
same,"viability, T/C","second compound 0.0316 µM, first compound 0.949 µM",1.42%
same,"viability, T/C","second compound 0.0316 µM, first compound 3 µM",0.84%
same,"viability, T/C",[6],62.2%
same,"viability, T/C",[7],81.8%
same,"viability, T/C",[8],55.4%
same,"viability, T/C",[9],2.56%
same,"viability, T/C",[10],1.28%
same,"viability, T/C",[11],0.81%
same,"viability, T/C",[12],56%
same,"viability, T/C",[13],73.7%
same,"viability, T/C",[14],45.9%
same,"viability, T/C",[15],3.08%
same,"viability, T/C",[16],1.56%
same,"viability, T/C",[17],1.05%
same,"viability, T/C",[18],58.5%
same,"viability, T/C",[19],66%
same,"viability, T/C",[20],37%
same,"viability, T/C",[21],4.69%
same,"viability, T/C",[22],2.05%
same,"viability, T/C",[23],1.1%
C=CC(=O)N1CCN(c2nc(=O)n(-c3c(C)ccnc3C(C)C)c3nc(-c4c(O)cccc4F)c(F)cc23)C(C)C1 (configuration not stated),"viability, T/C",compound 0.0316 µM,26.6% and 19.1%
same,"viability, T/C",compound 0.1 µM,18.9% and 20.1%
same,"viability, T/C",compound 0.316 µM,19.7% and 18.1%
same,"viability, T/C",compound 1 µM,18.6% and 17.6%
same,"viability, T/C",compound 3.16 µM,16% and 20.2%
same,"viability, T/C",compound 10 µM,20.3% and 18.5%
same,IC50,curve of compound,< 31.6 nM
Cn1nccc1Nc1nccc(-c2ccn(C(CO)c3ccc(Cl)c(F)c3)c(=O)c2)n1 (configuration not stated) + CCN1CCN(Cc2ccc(Nc3ncc(F)c(-c4cc(F)c5nc(C)n(C(C)C)c5c4)n3)nc2)CC1,IC50,[1],121 nM
same,IC50,[2],131 nM
same,IC50,[3],87.3 nM
same,IC50,[4],< 31.6 nM
same,IC50,[5],< 31.6 nM
same,"viability, T/C","second compound 0.01 µM, first compound 0.0316 µM",77.9%
same,"viability, T/C","second compound 0.01 µM, first compound 0.1 µM",47.2%
same,"viability, T/C","second compound 0.01 µM, first compound 0.316 µM",46.7%
same,"viability, T/C","second compound 0.01 µM, first compound 1 µM",31.2%
same,"viability, T/C","second compound 0.01 µM, first compound 3.16 µM",26.9%
same,"viability, T/C","second compound 0.01 µM, first compound 10 µM",29.6%
same,"viability, T/C","second compound 0.0316 µM, first compound 0.0316 µM",60.9%
same,"viability, T/C","second compound 0.0316 µM, first compound 0.1 µM",48.9%
same,"viability, T/C","second compound 0.0316 µM, first compound 0.316 µM",45.9%
same,"viability, T/C","second compound 0.0316 µM, first compound 1 µM",28%
same,"viability, T/C","second compound 0.0316 µM, first compound 3.16 µM",26.2%
same,"viability, T/C","second compound 0.0316 µM, first compound 10 µM",24.9%
same,"viability, T/C","second compound 0.1 µM, first compound 0.0316 µM",57.1%
same,"viability, T/C","second compound 0.1 µM, first compound 0.1 µM",48.3%
same,"viability, T/C","second compound 0.1 µM, first compound 0.316 µM",40.5%
same,"viability, T/C","second compound 0.1 µM, first compound 1 µM",28.1%
same,"viability, T/C","second compound 0.1 µM, first compound 3.16 µM",31.2%
same,"viability, T/C","second compound 0.1 µM, first compound 10 µM",24.9%
same,"viability, T/C","second compound 0.316 µM, first compound 0.0316 µM",49.7%
same,"viability, T/C","second compound 0.316 µM, first compound 0.1 µM",46.4%
same,"viability, T/C","second compound 0.316 µM, first compound 0.316 µM",37.1%
same,"viability, T/C","second compound 0.316 µM, first compound 1 µM",34%
same,"viability, T/C","second compound 0.316 µM, first compound 3.16 µM",24.6%
same,"viability, T/C","second compound 0.316 µM, first compound 10 µM",28.5%
same,"viability, T/C","second compound 1 µM, first compound 0.0316 µM",42.8%
same,"viability, T/C","second compound 1 µM, first compound 0.1 µM",50%
same,"viability, T/C","second compound 1 µM, first compound 0.316 µM",40.3%
same,"viability, T/C","second compound 1 µM, first compound 1 µM",29.3%
same,"viability, T/C","second compound 1 µM, first compound 3.16 µM",25.5%
same,"viability, T/C","second compound 1 µM, first compound 10 µM",23.1%
CC(C)(C)c1cnc(CSc2cnc(NC(=O)C3CCNCC3)s2)o1 + CC(C)NCC(C(=O)N1CCN(c2ncnc3c2C(C)CC3O)CC1)c1ccc(Cl)cc1,IC50,[3],169 nM
same,IC50,[4],137 nM
same,IC50,[5],158 nM
same,IC50,"curve of first compound, second compound 3.16 µM",152 nM
same,IC50,"curve of first compound, second compound 10 µM",148 nM
same,"viability, T/C",[6],117%
same,"viability, T/C",[7],110%
same,"viability, T/C",[8],96.3%
same,"viability, T/C",[9],3.55%
same,"viability, T/C",[10],1.37%
same,"viability, T/C",[11],0.93%
same,"viability, T/C",[12],73.6%
same,"viability, T/C",[13],111%
same,"viability, T/C",[14],72.7%
same,"viability, T/C",[15],2.55%
same,"viability, T/C",[16],1.26%
same,"viability, T/C",[17],0.62%
same,"viability, T/C",[18],95.6%
same,"viability, T/C",[19],117%
same,"viability, T/C",[20],88.8%
same,"viability, T/C",[21],2.06%
same,"viability, T/C",[22],0.88%
same,"viability, T/C",[23],0.72%
same,"viability, T/C","second compound 3.16 µM, first compound 0.00949 µM",97.9%
same,"viability, T/C","second compound 3.16 µM, first compound 0.03 µM",113%
same,"viability, T/C","second compound 3.16 µM, first compound 0.0949 µM",82.9%
same,"viability, T/C","second compound 3.16 µM, first compound 0.3 µM",2.53%
same,"viability, T/C","second compound 3.16 µM, first compound 0.949 µM",0.89%
same,"viability, T/C","second compound 3.16 µM, first compound 3 µM",0.79%
same,"viability, T/C","second compound 10 µM, first compound 0.00949 µM",79.2%
same,"viability, T/C","second compound 10 µM, first compound 0.03 µM",74.1%
same,"viability, T/C","second compound 10 µM, first compound 0.0949 µM",88%
same,"viability, T/C","second compound 10 µM, first compound 0.3 µM",1.97%
same,"viability, T/C","second compound 10 µM, first compound 0.949 µM",0.87%
same,"viability, T/C","second compound 10 µM, first compound 3 µM",0.7%
